Measurements: patent US20040072753A1, “Peptides for use in the treatment of alzheimer's disease” (priority 2000, published 2004)
Where a SMILES comes first, the peptide text is derived from it. Where no end group is shown, it is not given here. [ ]: non-standard residue; d: D form. pS = N[C@@H](COP(=O)(O)O)C(=O)O

Experiments:
[1] = system: SP2/0-Ag-14 mouse myeloma cells; experiment: Cytotoxicity of Aβ peptides, trypan blue dye exclusion; format: cell-based; details: test peptides 20 μM, 24 hours
Procedure: SP2/0-Ag-14 mouse myeloma cells were maintained in RPMI 1640 medium containing 10% fetal calf serum at 37° C. in a 5% CO2 humidified atmosphere. For cytotoxicity experiments 2×1 05 cells were plated in 24 well dishes in 1 ml PBS containing 0.1% BSA and test peptides (20 μM) for 24 hours. Cell viability was determined by trypan blue dye exclusion with at least 100 cells counted per well (Milton, Biochem. J. 344: 293-296 (1999)).

biotinylated Aβ 1-42 = biotinylated Aβ 1-42 (Homo sapiens, UniProt P05067); experiment: Binding of biotinylated Aβ 1-42 to CAβBP or EAβBP coated plates (ELISA, Scatchard); details: biotinylated peptide 200 pM
Procedure: After washing to remove unbound material, an alkaline phosphatase polymer-streptavidin conjugate (Sigma, Dorset, UK) was added and incubated at 37° C. for 2 hours. After washing to remove unbound material, p-nitrophenylphosphate substrate was added and absorbance at 405 nm determined.

biotinylated Aβ 25-35 = biotinylated Aβ 25-35 (Homo sapiens, UniProt P05067); experiment: Binding of biotinylated Aβ 25-35 to CAβBP or EAβBP coated plates (ELISA); details: biotinylated peptide 200 pM
Procedure: Biotinylated Aβ1-42, Aβ12-28 and Aβ 25-35 (from SEQ ID NO. 2) were prepared using a LinKit-Biolink kit (ISL, Paignton, UK). ELISA plates were coated with CAβBP (catalase residues 400409) or EAβBD (ERAB residues 99-108) (1 μg ml^−1) in carbonate buffer and unoccupied sites blocked with 5% (w/v) dried milk. Biotinylated peptides (200 pM) were incubated alone, with control peptides or with unlabelled Aβ peptides in PBS (containing 0.1% BSA and 0.05% Tween-20) at 37° C. for 4 hours. After washing to remove unbound material, an alkaline phosphatase polymer-streptavidin conjugate (Sigma, Dorset, UK) was added and incubated at 37° C. for 2 hours. After washing to remove unbound material, p-nitrophenylphosphate substrate was added and absorbance at 405 nm determined. Affinity constants were determined by incubating catalase or CAβBP coated plates with biotinylated peptides (200 pM) plus Aβ peptides over a range of concentrations (0-100 nM) and detection of bound peptides was carried out by ELISA.

[2] = target: T1, catalase EC 1.11.1.6 from human erythrocytes (Homo sapiens, UniProt P04040); experiment: Catalase enzyme activity, inhibition by Aβ peptides; format: biochemical; details: test peptides 2 μM
T1 construct: catalase EC 1.11.1.6 from human erythrocytes (Sigma, Dorset, UK) was used; purchased Sigma, Dorset, UK; host or cells: human erythrocytes
T1 sequence (P04040 2-527 limits assumed): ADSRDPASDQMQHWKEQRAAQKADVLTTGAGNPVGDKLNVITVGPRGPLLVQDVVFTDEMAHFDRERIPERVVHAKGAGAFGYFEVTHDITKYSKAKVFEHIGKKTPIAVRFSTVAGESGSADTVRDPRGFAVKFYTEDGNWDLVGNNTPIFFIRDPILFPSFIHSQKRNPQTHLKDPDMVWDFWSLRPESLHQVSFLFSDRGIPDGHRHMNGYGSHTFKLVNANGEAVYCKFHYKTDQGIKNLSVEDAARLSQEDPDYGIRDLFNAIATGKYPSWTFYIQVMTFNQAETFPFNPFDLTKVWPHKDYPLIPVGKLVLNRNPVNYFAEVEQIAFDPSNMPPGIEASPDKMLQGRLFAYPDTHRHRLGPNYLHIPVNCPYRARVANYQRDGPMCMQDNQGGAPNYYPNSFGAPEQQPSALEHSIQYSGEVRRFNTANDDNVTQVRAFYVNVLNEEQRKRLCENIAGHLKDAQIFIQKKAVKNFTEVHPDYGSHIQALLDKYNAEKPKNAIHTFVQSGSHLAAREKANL
Procedure: For catalase activity catalase EC 1.11.1.6 from human erythrocytes (Sigma, Dorset, UK) was used for all incubation experiments. Activity of Catalase (5kU I^−1) incubated with test peptides (2 μM) was determined after incubation in 60 mM sodium-potassium phosphate buffer at 37° C. in a total volume of 100 μl. After incubation catalase activity was determined by mixing 50 μl sample with 50 μl substrate (6.5 μmol H2O2 in phosphate buffer) for 60 secs, adding 100 μl of 32.4 mM ammonium molybdate and measurement of absorbance change at 405 nm. Catalase activity was calculated from a standard curve (0-10OkU I^−1) using purified human catalase of known activity (Milton, Biochem. J. 344: 293-296 (1999)).

recombinant human cdc2 = recombinant human cdc2 (Homo sapiens, UniProt P06493); experiment: Binding of biotinylated Aβ peptides to recombinant human cdc2 coated plates (ELISA); details: for binding to human cdc2: biotinylated peptide 200 pM, 37° C. 4 hours
Procedure: After washing to remove unbound material, an alkaline phosphatase polymer-streptavidin conjugate (Sigma, Dorset, UK) was added and incubated at 37° C. for 2 hours.

[3] = target: T2, recombinant p34-cdc2/cyclin B1 (Homo sapiens, UniProt P06493); experiment: Phosphorylation of biotinylated Aβ peptides by recombinant p34-cdc2/cyclin B1 (32P incorporation); format: biochemical; details: for phosphorylation by cdc2 (incorporation of 32P from γ32P-ATP): 25 μM biotinylated peptide, 10 min at 30° C.
T2 construct: purchased Promega, UK
Description: (§1) The membrane was washed four times in 2 M NaCl, followed by four times in 2 M NaCl containing 1% (v/v) H3PO4 and finally twice in deionized H2O to remove unbound material.

Human NT-2 neurons [4] = experiment: Cytotoxicity assay, MTT reduction in human NT-2 neurons; format: cell-based; details: for effect on MTT utilisation: 24 h incubation
Procedure: In order to assess the effects of Aβ phosphorylation on the cytotoxic properties of Aβ peptides, a series of Aβ 17-35 derivatives were synthesised. The 17-35 region of Aβ contains the serine residue (serine 26) which is proposed to be phosphorylated by p34-cdc2, and also contains the ERAB binding (17-20) and cytotoxic domains (31-35) thought to play roles in Aβ cytotoxicity. The peptides were tested in a cytotoxicity assay as follows. Human NT-2 (NTera2/D1) precursor cells were propagated in DMEM/F12 medium supplemented with retinoic acid for 5-6 weeks prior to harvesting and replating in the presence of mitotic inhibitors, to generate post-mitotic Human NT-2 neurons. For cytotoxicity experiments, 5×10^3 cells/100 μl, medium were plated in Poly-D-lysine coated 96 well plates. Test peptides (20 μM) were added directly to culture medium prior to incubation for 24 h. Cell viability was determined by measurement of MTT (3-(4,5-dimethylthiazol-2-yl)-2,5-diphenyl tetrazolium bromide) reduction (Shearman, Methods Enzymol. 309: 716-723 (1999)). After incubation with peptides MTT (10 μl: 12 mM stock) was added and cells incubated for a further 4 hours. Cell lysis buffer [100 μl/well; 20% (v/v) SDS, 50% (v/v) N,N-dimethylformamide, pH 4.7] was added and, after repeated pipetting to lyse cells, calorimetric determination of MTT formazan product formation was determined by measuring the absorbance change at 540 nm. Control levels in the absence of peptide were taken as 100%, with the absorbance in the absence of cells taken as 0%.

Human NT-2 neurons [5] = experiment: Immunoassay of ir-pSAβ and ir-Aβ in extracts of NT-2 neurons exposed to Aβ 17-35 derivatives; format: cell-based; details: for levels of immunoreactive Aβ (ir-Aβ) in exposed cells: cell extracts; for ir-pSAβ in extracts of exposed cells: versus control cells
Procedure: To establish whether Aβ is phosphorylated in the Alzheimer's brain, Alzheimer disease brain sections were obtained from Novagen Inc (Madison, Wis., USA. Cat No: 70298-3; Lot No: A301036). Sections were deparaffinised and extracted in DEA buffer supplemented with 0.1 mM sodium vanadate. Extracts from NT-2 neurons were also prepared using the same buffer. Using a polyclonal anti-AB 15-30 antiserum plus Protein-A agarose, the Aβ was immunoprecipitated. The resultant extracts were further purified using a Sep-Pak C18 extraction step. Columns were pre-wetted with methanol and 0.5M acetic acid and the samples were applied in 20% acetonitrile in 0.1% TFA. […] After drying under a stream of nitrogen, samples were resuspended in appropriate buffer. For SDS-PAGE analysis, samples were resuspended in gel loading buffer and run on a 15% acrylamide gel. After immunoblotting onto nitrocellulose membranes, the blots were stained with anti-Aβ, anti-phosphoserine, anti-phosphotyrosine or anti-phosphothreonine antibodies. Bands were visualized with anti-mouse or anti-rabbit IgG-HRP conjugates and TMB membrane substrate. […] ELISA plates were coated with anti-phosphoserine antiserum for pSAβ determination and blocked with 5% dried milk. Samples or synthetic Aβ standards (Aβ 17-35 pS) were applied in PBS containing 0.1% BSA plus 0.05% Tween 20. Monoclonal antibody ALI-01 was added and incubated for 2 hrs. After washing to remove unbound material, ir-pSAβ was detected using an anti-rabbit IgG-HRP conjugate and TMB substrate. A similar assay in which the pS antibody was replaced with a polyclonal anti-Aβ antibody was used to measure Aβ levels.

cdc2/cyclin B1 = target: T3, cdc2/cyclin B1 (Homo sapiens, UniProt P06493+P14635); experiment: cdc2/cyclin B1 phosphorylation of biotinylated histone H1 substrate peptide; format: biochemical
T3 construct: purchased Promega, UK
Description: as §1
Since Aβ binds to both the cdc2 and cyclin B1 components of the active enzyme it is possible that Aβ modulates the activity of the kinase.

T2 sequence (P06493 whole entry): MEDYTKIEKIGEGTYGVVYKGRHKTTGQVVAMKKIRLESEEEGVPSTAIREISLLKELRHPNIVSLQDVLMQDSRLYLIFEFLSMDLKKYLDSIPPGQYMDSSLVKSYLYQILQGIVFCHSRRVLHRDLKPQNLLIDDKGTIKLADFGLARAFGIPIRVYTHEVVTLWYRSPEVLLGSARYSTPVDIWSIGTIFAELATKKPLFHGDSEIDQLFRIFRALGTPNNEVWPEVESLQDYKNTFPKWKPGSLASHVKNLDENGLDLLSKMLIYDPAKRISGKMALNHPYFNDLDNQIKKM
T2 sequence (P14635 whole entry partner): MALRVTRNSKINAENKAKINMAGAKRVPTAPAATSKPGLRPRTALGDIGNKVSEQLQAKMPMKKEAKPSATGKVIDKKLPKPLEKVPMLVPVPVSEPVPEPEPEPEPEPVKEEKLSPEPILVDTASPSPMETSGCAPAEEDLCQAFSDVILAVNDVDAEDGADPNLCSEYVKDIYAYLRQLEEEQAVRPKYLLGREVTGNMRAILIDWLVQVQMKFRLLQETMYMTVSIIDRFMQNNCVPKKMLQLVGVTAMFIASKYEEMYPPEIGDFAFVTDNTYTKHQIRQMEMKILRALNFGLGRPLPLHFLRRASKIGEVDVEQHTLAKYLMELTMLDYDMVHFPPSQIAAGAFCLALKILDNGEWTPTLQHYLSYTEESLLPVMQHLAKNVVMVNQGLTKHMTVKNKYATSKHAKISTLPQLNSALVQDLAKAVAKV
Sequence of recombinant human cdc2 (P06493 whole entry): as the sequence (P06493 whole entry) above
T3 sequence (P06493 whole entry): as above
T3 sequence (P14635 whole entry): as the sequence (P14635 whole entry partner) above
Sequence of biotinylated Aβ 1-42 (P05067 672-713 limits assumed): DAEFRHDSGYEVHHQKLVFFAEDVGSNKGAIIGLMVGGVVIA

## CC(C)C[C@H](NC(=O)[C@H](CC(C)C)NC(=O)[C@H](CCCNC(=N)N)NC(=O)[C@H](CCCCN)NC(=O)[C@H](CCCCN)NC(=O)[C@H](Cc1c[nH]cn1)NC(=O)[C@H](CC(N)=O)NC(=O)[C@H](Cc1ccccc1)NC(=O)[C@@H](NC(=O)[C@@H](N)C(C)C)C(C)C)C(=O)O [AβAS(F) 14-23] (H-VVFNHKKRLL-OH)
[1]
  block of the cytotoxicity of Aβ 1-42: able to block
  block of the cytotoxicity of Aβ fragments containing residues 17-35: able to block

## CC(C)C[C@H](N)C(=O)N[C@@H](Cc1ccccc1)C(=O)N1CCC[C@H]1C(=O)N[C@@H](CCCNC(=N)N)C(=O)N[C@@H](Cc1ccc(O)cc1)C(=O)N[C@@H](Cc1ccc(O)cc1)C(=O)N1CCC[C@H]1C(=O)N[C@@H](CCC(=O)O)C(=O)N[C@@H](Cc1ccc(O)cc1)C(=O)N[C@@H](Cc1c[nH]cn1)C(=O)O [AβAS(F) 27-36] (H-LFPRYYPEYH-OH)
[1]
  block of the cytotoxicity of Aβ 1-42: able to block
  block of the cytotoxicity of Aβ fragments containing residues 25-35: able to block

## C[C@H](NC(=O)CN)C(=O)N1CCC[C@H]1C(=O)N[C@@H](CC(N)=O)C(=O)N[C@@H](Cc1ccc(O)cc1)C(=O)N[C@@H](Cc1ccc(O)cc1)C(=O)N1CCC[C@H]1C(=O)N[C@@H](CC(N)=O)C(=O)N[C@@H](CO)C(=O)N[C@@H](Cc1ccccc1)C(=O)O [CAβBP]
Biotinylated Aβ 1-42
  binding of biotinylated Aβ 1-42: specifically bound
Biotinylated Aβ 25-35
  binding of biotinylated Aβ 25-35: specifically bound
[2]
  block of the inhibition of catalase enzyme activity by Aβ 1-42: able to block
  block of the inhibition of catalase enzyme activity by Aβ fragments containing residues 31-35: able to block
[1]
  block of the cytotoxicity of Aβ 1-42: able to block
  block of the cytotoxicity of Aβ fragments containing residues 31-35: able to block

## Aβ 1-42: major form of Amyloid-β protein, residues 1-42
Recombinant human cdc2
  binding to human cdc2: bound
[3]
  phosphorylation by cdc2 (incorporation of 32P from γ32P-ATP): incorporated

## Aβ 1-43: Amyloid-β 1-43 region, SEQ ID NO. 2
Recombinant human cdc2
  binding to human cdc2: binds to
[3]
  phosphorylation by cdc2 (incorporation of 32P from γ32P-ATP): phosphorylated

## Aβ 17-28: Aβ fragment, residues 17-28 (LVFFAEDVGSNK)
Recombinant human cdc2; biotinylated Aβ 1-40 (FIG. 5)
  inhibition of the binding of Aβ to cdc2: inhibited
[3]
  inhibition of phosphorylation of Aβ: inhibited

## Aβ 17-35 S26A: Aβ 17-35 in which the serine residue for phosphorylation has been mutated to an alanine residue (LVFFAEDVGANKGAIIGLM; Amyloid-beta protein 42; UniProt P05067 688-706, looked up, variant S26A)
Human NT-2 neurons [4]
  effect on MTT utilisation: no effect
Human NT-2 neurons [5]
  levels of immunoreactive Aβ (ir-Aβ) in exposed cells: increased levels
  ir-pSAβ in extracts of exposed cells: no difference to control cells

## Aβ 17-35 pS26: Aβ 17-35 peptide with a phosphorylated serine residue (LVFFAEDVG[pS]NKGAIIGLM; UniProt P05067 688-706, looked up, fragment)
Human NT-2 neurons [4]
  potency in MTT reduction compared with the non-phosphorylated peptide: significantly more potent
  effect on MTT utilisation: dose dependent reduction
Human NT-2 neurons [5]
  levels of immunoreactive Aβ (ir-Aβ) in exposed cells: increased levels
  ir-pSAβ in extracts of exposed cells: no difference to control cells

## Aβ 17-35: Aβ fragment 17-35 containing serine 26, ERAB binding and cytotoxic domains (LVFFAEDVGSNKGAIIGLM)
Human NT-2 neurons [4]
  effect on MTT utilisation: dose dependent reduction
Human NT-2 neurons [5]
  levels of immunoreactive Aβ (ir-Aβ) in exposed cells: increased levels
  ir-pSAβ in extracts of exposed cells: increased amounts
cdc2/cyclin B1
  effect on phosphorylation of the H1 peptide by cdc2/cyclin B1: increased

## Aβ 31-35: shortest cytotoxic form of Aβ (IIGLM)
cdc2/cyclin B1
  effect on phosphorylation of the H1 peptide by cdc2/cyclin B1: increased

## CDKP1: synthetic peptide corresponding to cdc2 residues 119-133 (CHSRRVLHRDLKPQN)
[3]
  inhibition of phosphorylation of Aβ: inhibited

## PKTPKKAKKL (listed as Homo sapiens) [H1 peptide]
[3]; substrate of cdc2/cyclin B1, read-out: Michaelis constant (KM) for the phosphorylation
  Km: 2.7 µM
